The numbers were not newly measured in publication PMC9430692, “BRET-Based Self-Cleaving Biosensors for SARS-CoV-2 3CLpro Inhibitor Discovery” (Microbiology Spectrum, 2022), which cites them from elsewhere.

The test system of the data set is SARS-CoV-2. The conditions noted are these: Vero E6 cells, MOI 0.01; ref [8]; read-out: Reported EC50 against SARS-CoV-2.

By EC50 is commonly meant the concentration that produces a half-maximal response. As for `CC(C)(C)NC(=O)N[C@H](C(=O)N1C[C@H]2[C@@H]([C@H]1C(=O)NC(CC1CCC1)C(=O)C(N)=O)C2(C)C)C(C)(C)C` (stereo partly shown) [Boceprevir], the concentration giving a half-maximal response (EC50) was 15.6 µM.
